In patent publication US12053606B2, “Opioid overdose rescue device” (Celero Systems, Inc., priority 2019, dated 2024):

Assays:
respiratory rate = assay: Induced morphine overdose and rescue with nalmefene in anesthetized porcine animal model; assay type: in vivo
Description: The following examples provides data collected from an opioid overdose rescue device during overdose and rescue animal studies. The opioid overdose rescue device included a substrate having a PPG sensor, accelerometer and microcontroller disposed thereon, which was coupled to a substrate having a radio, chip antenna, power management components, and magnet sensor (so the device could be turned on and off without direct contact) disposed thereon.
FIGS. 6A and 6B show an example PPG sensor recording from the intestines in an anesthetized porcine animal model during an overdose and recovery study. The PPG sensor was endoscopically placed into the small intestine and anchored to intestinal tissue with 2 endoclips—one on each side of the device.
Baseline data was collected for 8 minutes. Then 60 mg of IV morphine was administered over 3 minutes (20 mg each minute for 3 minutes). The respiratory rate as measured by the lab vitals monitoring equipment decreased eventually to zero, indicated respiratory failure. One minute after respiratory failure, 50 mg nalmefene in solution was administered endoscopically directly into the intestines. Within 4 minutes of nalmefene delivery breathing recovered and eventually returned to pre-overdose levels. […] In certain aspects, a method of mitigating the effects of an opioid overdose could involve determining when a measured respiratory rate drops below a threshold (e.g. 8 breaths per minute) for a duration of time (e.g. 30 seconds) and commanding release of a rescue medication.
In a different study than referenced in FIG. 7, the device was endoscopically placed and anchored in the animal's intestine in a similar manner. […] As with the PPG data, a measured respiratory rate obtained from the motion sensing (i.e. accelerometer) data in the intestine could be used to detect an opioid overdose and trigger delivery of a rescue medication.

[1] = tested on: opiate receptors—μ, κ and δ; conditions: cited from earlier work
[2] = cited from earlier work

Compound | respiratory rate after morphine (lab vitals monitor) (respiratory rate; 60 mg IV morphine over 3 minutes, zero indicates respiratory failure) | time after nalmefene delivery until breathing recovered (respiratory rate; PPG sensor study (FIG. 7), 50 mg nalmefene in solution endoscopically into the intestines, one minute after respiratory failure from 60 mg IV morphine) [min] | time after nalmefene delivery until respiratory rate restored to normal levels (respiratory rate; accelerometer study (FIG. 8), 50 mg nalmefene in solution endoscopically delivered after respiratory failure from 60 mg IV morphine) [min] | antagonist activity at opiate receptor types [1] | oral bioavailability [2] [%]
CN1CC[C@]23c4c5ccc(O)c4O[C@H]2[C@@H](O)C=C[C@H]3[C@H]1C5 [morphine] | zero | – | – | – | –
C=C1CC[C@@]2(O)[C@H]3Cc4ccc(O)c5c4[C@@]2(CCN3CC2CC2)[C@H]1O5 [nalmefene] | – | ≤ 4 | 14 | antagonist activity against all three types of opiate receptors | 41
